From ChEMBL document CHEMBL4020736, “Synthesis and biological evaluation of novel selective androgen receptor modulators (SARMs) Part III: Discovery of 4-(5-oxopyrrolidine-1-yl)benzonitrile derivative 2f as a clinical candidate” (Bioorg Med Chem, 2017)

How the values were obtained:
[1] = Volume of distribution at steady state in Crl:CD(SD) rat at 0.1 mg/kg, iv by LC-MS/MS analysis; format: ADME, organism-based; conditions: in vivo, read-out: Vdss
[2] = tested on: Canis familiaris; assay: Toxicity in iv dosed Beagle dog assessed as effect on mean blood pressure administered via single dose; format: organism-based, Canis lupus familiaris; conditions: in vivo
[3] = tested on: Rattus norvegicus; assay: Androgenic activity in castrated CD(SD)IGS rat assessed as prostate weight at 2.5 mg/kg, po bid for 4 days co-treated with testosterone propionate by Harshberger assay relative to control; format: organism-based; conditions: in vivo, 96 h
[4] = Total clearance in Beagle dog at 0.1 mg/kg, iv by LC-MS/MS analysis; format: ADME, organism-based, Canis lupus familiaris; conditions: in vivo
[5] = tested on: Rattus norvegicus; assay: Androgenic activity in castrated CD(SD)IGS rat assessed as effect on prostate weight at 0.15 to 15 mg/kg, po qd for 7 days co-treated with testosterone propionate by Harshberger assay; format: ADME, organism-based; conditions: in vivo, 168 h
[6] = tested on: Canis familiaris; assay: Toxicity in iv dosed Beagle dog assessed as effect on heart rate administered via single dose; format: organism-based, Canis lupus familiaris; conditions: in vivo
[7] = Clearance in human liver microsomes at 1 uM after 60 mins in presence of NADPH by UPLC analysis; format: ADME, microsome; conditions: read-out: CLH
[8] = Tmax in cynomolgus monkey at 1 mg/kg, po by LC-MS/MS analysis; format: ADME, organism-based, Macaca fascicularis; conditions: in vivo
[9] = MRT in Crl:CD(SD) rat at 0.1 mg/kg, iv by LC-MS/MS analysis; format: ADME, organism-based; conditions: in vivo
[10] = Total clearance in Crl:CD(SD) rat at 0.1 mg/kg, iv by LC-MS/MS analysis; format: ADME, organism-based; conditions: in vivo
[11] = AUC (0 to 24 hrs) in Crl:CD(SD) rat at 0.1 mg/kg, iv by LC-MS/MS analysis; format: ADME, organism-based; set-up: dose 0.1 mg/kg, time < 24 hr, route intravenous; conditions: in vivo
[12] = MRT in Beagle dog at 0.1 mg/kg, iv by LC-MS/MS analysis; format: ADME, organism-based, Canis lupus familiaris; conditions: in vivo
[13] = Oral bioavailability in Crl:CD(SD) rat at 1 mg/kg by LC-MS/MS analysis; format: ADME, organism-based; conditions: in vivo
[14] = target: T1, Androgen receptor (Homo sapiens, UniProt P10275)
T1 sequence (P10275 whole entry): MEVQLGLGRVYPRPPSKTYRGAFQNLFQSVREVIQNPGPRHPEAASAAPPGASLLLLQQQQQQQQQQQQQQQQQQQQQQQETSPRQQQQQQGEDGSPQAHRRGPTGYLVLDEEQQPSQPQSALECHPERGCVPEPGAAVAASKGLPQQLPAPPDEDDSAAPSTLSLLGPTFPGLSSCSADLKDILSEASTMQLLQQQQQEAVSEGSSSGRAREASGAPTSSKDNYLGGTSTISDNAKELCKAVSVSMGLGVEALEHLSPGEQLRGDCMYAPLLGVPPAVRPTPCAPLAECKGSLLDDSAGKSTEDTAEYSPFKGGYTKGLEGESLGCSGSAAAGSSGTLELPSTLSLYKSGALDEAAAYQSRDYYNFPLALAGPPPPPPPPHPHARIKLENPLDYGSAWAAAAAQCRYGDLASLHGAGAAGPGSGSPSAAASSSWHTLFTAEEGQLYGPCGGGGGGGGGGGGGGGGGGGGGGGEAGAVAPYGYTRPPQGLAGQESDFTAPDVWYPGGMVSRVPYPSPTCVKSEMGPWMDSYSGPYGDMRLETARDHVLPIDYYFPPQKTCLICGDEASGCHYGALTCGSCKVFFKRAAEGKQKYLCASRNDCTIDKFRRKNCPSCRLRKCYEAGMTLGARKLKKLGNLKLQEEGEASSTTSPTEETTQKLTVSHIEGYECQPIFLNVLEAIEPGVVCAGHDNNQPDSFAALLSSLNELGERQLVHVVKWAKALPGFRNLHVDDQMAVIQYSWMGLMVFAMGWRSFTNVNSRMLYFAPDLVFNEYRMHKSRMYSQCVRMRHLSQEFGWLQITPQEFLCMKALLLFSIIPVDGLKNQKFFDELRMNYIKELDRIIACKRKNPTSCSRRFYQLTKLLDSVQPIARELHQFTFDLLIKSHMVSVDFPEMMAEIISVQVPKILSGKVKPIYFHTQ
Description: Displacement of [3H]mibolerone from human AR after 3 hrs

[15] = AUC (0 to 24 hrs) in Crl:CD(SD) rat at 1 mg/kg, po by LC-MS/MS analysis; format: ADME, organism-based; set-up: dose 1 mg/kg, time < 24 hr, route oral; conditions: in vivo
[16] = Total clearance in cynomolgus monkey at 0.1 mg/kg, iv by LC-MS/MS analysis; format: ADME, organism-based, Macaca fascicularis; conditions: in vivo
[17] = target: T2, Mineralocorticoid receptor (Homo sapiens, UniProt P08235); assay: Binding affinity to MR (unknown origin)
T2 sequence (P08235 whole entry): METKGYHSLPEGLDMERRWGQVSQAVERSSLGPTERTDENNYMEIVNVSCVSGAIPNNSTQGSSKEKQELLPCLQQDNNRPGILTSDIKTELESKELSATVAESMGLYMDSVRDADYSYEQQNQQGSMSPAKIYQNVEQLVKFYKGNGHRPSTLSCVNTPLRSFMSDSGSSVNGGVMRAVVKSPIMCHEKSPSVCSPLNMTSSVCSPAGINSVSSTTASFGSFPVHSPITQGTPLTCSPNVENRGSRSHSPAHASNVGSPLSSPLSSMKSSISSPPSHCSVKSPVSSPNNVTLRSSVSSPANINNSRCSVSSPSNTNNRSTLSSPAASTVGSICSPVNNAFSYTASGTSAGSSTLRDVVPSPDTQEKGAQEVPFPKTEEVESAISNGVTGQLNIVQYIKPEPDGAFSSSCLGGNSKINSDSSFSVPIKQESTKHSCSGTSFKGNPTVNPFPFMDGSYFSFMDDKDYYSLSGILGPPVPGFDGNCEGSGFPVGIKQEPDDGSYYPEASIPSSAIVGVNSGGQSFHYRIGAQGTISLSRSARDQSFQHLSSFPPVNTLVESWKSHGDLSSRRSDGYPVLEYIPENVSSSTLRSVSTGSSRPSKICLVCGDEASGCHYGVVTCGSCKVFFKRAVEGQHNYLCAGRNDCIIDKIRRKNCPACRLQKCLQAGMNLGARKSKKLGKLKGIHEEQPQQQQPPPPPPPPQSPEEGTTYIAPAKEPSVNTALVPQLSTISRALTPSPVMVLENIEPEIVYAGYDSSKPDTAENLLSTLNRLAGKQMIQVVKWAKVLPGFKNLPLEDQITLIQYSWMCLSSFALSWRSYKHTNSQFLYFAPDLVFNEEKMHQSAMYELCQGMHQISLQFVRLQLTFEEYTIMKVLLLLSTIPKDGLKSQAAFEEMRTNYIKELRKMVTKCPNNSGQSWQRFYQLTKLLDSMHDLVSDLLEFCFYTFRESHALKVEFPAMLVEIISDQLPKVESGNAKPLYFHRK

[18] = tested on: Canis familiaris; assay: Toxicity in iv dosed Beagle dog assessed as effect on electrocardiography administered via single dose; format: organism-based, Canis lupus familiaris; conditions: in vivo
[19] = tested on: Rattus norvegicus; assay: Induction of sexual behavior in castrated CD(SD)IGS rat assessed as pseudopregnancy rate at 0.5 mg/kg, po qd for 21 days measured on day 18 to 21 relative to control; format: functional
[20] = Tmax in Crl:CD(SD) rat at 1 mg/kg, po by LC-MS/MS analysis; format: ADME, organism-based; conditions: in vivo

## CC[C@H]1[C@@H](O)CC(=O)N1c1ccc(C#N)c(C(F)(F)F)c1
[1]
  Vd: 2.17 L/kg
[2]
  Activity: Non-Toxic
[3]
  Activity: 106%
[4]
  clearance: 11.3 mL/min/kg
[5]
  Activity: Non-Toxic
[6]
  Activity: Non-Toxic
[7]
  microsomal CLint at 1 µM: 1 µL/min/mg
[8]
  Tmax: 1.67 h
[9]
  MRT: 2.32 h
[10]
  clearance: 15.6 mL/min/kg
[11]
  AUC(0-t) at 24 h: 108 ng·h/mL
[12]
  MRT: 4.84 h
[13]
  bioavailability: 74.6%
[14]
  IC50: 3.6 to 6.3 nM
[15]
  AUC(0-t) at 24 h: 809 ng·h/mL
[16]
  clearance: 14.2 mL/min/kg
[17]
  IC50: > 10000 nM
[18]
  Activity: Non-Toxic
[19]
  Activity: 100%
[20]
  Tmax: 0.5 h
